Test results: ChEMBL document CHEMBL1201862, “PubChem BioAssay data set” (2004)
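Test compounds were applied to cells in 96-well plates for 48 hours at 5 doses. The concentration for 50% growth inhibition is given as GI50.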 The source made the active and inactive calls. No stated cut-off is given here; in the data, active = GI50 up to about 1.1 µM and inactive = higher.

How the values were obtained:
Experiment in all cases: NCI tumour cell line growth inhibition, 48 h
ACHN = system: ACHN
BT-549 = system: BT-549
COLO 205 = system: COLO 205
EKVX = system: EKVX
HCT-15 = system: HCT-15
Hs-578T = system: Hs-578T
K562 = system: K562
MCF7 = system: MCF7
MDA-MB-231 = system: MDA-MB-231
MDA-MB-435 = system: MDA-MB-435
MOLT-4 = system: MOLT-4
PC-3 = system: PC-3
RXF 393 = system: RXF 393
SF-539 = system: SF-539
SK-MEL-28 = system: SK-MEL-28
SK-MEL-2 = system: SK-MEL-2
SK-MEL-5 = system: SK-MEL-5
SNB-75 = system: SNB-75
SR = system: SR
NCI-H460 = system: NCI-H460

Compound	GI50 (ACHN)	GI50 (BT-549)	GI50 (COLO 205)	GI50 (EKVX)	GI50 (HCT-15)	GI50 (Hs-578T)	GI50 (K562)	GI50 (MCF7)	GI50 (MDA-MB-231)	GI50 (MDA-MB-435)	GI50 (MOLT-4)	GI50 (PC-3)	GI50 (RXF 393)	GI50 (SF-539)	GI50 (SK-MEL-28)	GI50 (SK-MEL-2)	GI50 (SK-MEL-5)	GI50 (SNB-75)	GI50 (SR)	GI50 (NCI-H460)
N/C(=N/c1ccc(O)cc1)S(=O)O	> 100 µM (inactive)	> 100 µM (inactive)	> 100 µM (inactive)	> 100 µM (inactive)	> 100 µM	> 100 µM (inactive)	> 100 µM (inactive)	> 100 µM (inactive)	> 100 µM (inactive)	> 100 µM (inactive)	> 100 µM (inactive)	> 100 µM (inactive)	> 100 µM (inactive)	> 100 µM (inactive)	> 100 µM (inactive)	> 100 µM (inactive)	> 100 µM (inactive)	> 100 µM (inactive)	> 100 µM (inactive)	
Cc1cc(N(CCC#N)CCC#N)ccc1C(/N=N/c1ccc([N+](=O)[O-])cc1)=N\NC(=O)c1ccccc1	62.8 µM (inactive)	37.5 µM (inactive)	35.2 µM (inactive)	63.4 µM (inactive)	30.1 µM	25.1 µM (inactive)	22.9 µM (inactive)	25.8 µM (inactive)	58.7 µM (inactive)	7.82 µM (inactive)	45.2 µM (inactive)	41.2 µM (inactive)	52.2 µM (inactive)	15 µM (inactive)		67 µM (inactive)	26.4 µM (inactive)	48.4 µM (inactive)	14.2 µM (inactive)	37.2 µM (inactive)
CC(=O)N(CCc1ccccc1)C(C#N)c1ccccc1 (configuration not stated)	> 100 µM (inactive)	> 100 µM (inactive)	> 100 µM (inactive)	> 100 µM (inactive)	> 100 µM	> 100 µM (inactive)	> 100 µM (inactive)	> 100 µM (inactive)	> 100 µM (inactive)	> 100 µM (inactive)	> 100 µM (inactive)	> 100 µM (inactive)	> 100 µM (inactive)	> 100 µM (inactive)		> 100 µM (inactive)	> 100 µM (inactive)	10.5 µM (inactive)	> 100 µM (inactive)	
Cc1nc(C)c(N2CCNCC2)c(O)n1	> 100 µM (inactive)	> 100 µM (inactive)	> 100 µM (inactive)	> 100 µM (inactive)	> 100 µM	> 100 µM (inactive)	> 100 µM (inactive)	> 100 µM (inactive)	> 100 µM (inactive)	> 100 µM (inactive)	> 100 µM (inactive)	> 100 µM (inactive)	> 100 µM (inactive)	> 100 µM (inactive)	> 100 µM (inactive)		> 100 µM (inactive)	> 100 µM (inactive)	> 100 µM (inactive)	> 100 µM (inactive)
Cc1cc(C)nc(NS(=O)(=O)c2ccc(NC(=O)c3cccc4c(NNc5ccc(S(=O)(=O)N=C(N)N)cc5)c5ccccc5nc34)cc2)n1	> 50 µM (inactive)	> 50 µM (inactive)	> 50 µM (inactive)	> 50 µM (inactive)	> 50 µM	> 50 µM (inactive)	> 50 µM (inactive)	> 50 µM (inactive)	> 50 µM (inactive)	> 50 µM (inactive)	> 50 µM (inactive)	> 50 µM (inactive)	> 50 µM (inactive)	> 50 µM (inactive)			> 50 µM (inactive)	41.9 µM (inactive)	> 50 µM (inactive)	> 50 µM (inactive)
Cc1ccnc2[nH]c(-c3ccccc3)cc(=O)c12	0.0458 µM (active)	19 µM (inactive)	0.0039 µM (active)	0.3 µM (active)	0.00485 µM	0.0114 µM (active)	0.00281 µM (active)	0.0398 µM (active)	0.0912 µM (active)	0.1 µM (active)	0.0132 µM (active)	0.00548 µM (active)	0.0192 µM (active)	0.0191 µM (active)	0.01 µM (active)		0.00387 µM (active)	0.00621 µM (active)	0.00103 µM (active)	0.00682 µM (active)
